From ChEMBL document CHEMBL1201862, “PubChem BioAssay data set” (2004)
Activity calls are given as the source filed them.

Experiments:
[1] = viability of uninfected HEp-2 cells – cell-based, HTS, cytotoxicity control for RSV inhibitor project, dose response (AID 2410); assay type: functional; settings: human respiratory syncytial virus
BJ [2] = assay: BJ-TERT fibroblast viability loss – cell-based, RAS-independent, luminescence, dose response (AID 1933); assay type: functional; settings: Homo sapiens
BJ [3] = assay: cells; assay type: functional, cell-based; settings: Homo sapiens
BJ [4] = assay: BJ-TERT-LT-ST fibroblast viability loss – cell-based, RAS-independent, luminescence, dose response (AID 1935); assay type: functional; settings: Homo sapiens;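 also: BJ fibroblasts immortalized with TERT plus LT and ST oncogenes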
[5] = DRD fibroblast viability loss – cell-based, non-viral oncogenic, luminescence, dose response (AID 1934); assay type: functional; settings: Homo sapiens
Vero [6] = assay: cells; assay type: functional, cell-based; settings: Chlorocebus sabaeus
Vero [7] = assay: cells; assay type: functional; settings: Chlorocebus sabaeus
cells [8] = assay: cells
[9] = M. tuberculosis H37Rv growth inhibitors, H37Rv strain (AID 1626); assay type: functional
Protein skinhead-1 = molecular target: T1, Protein skinhead-1 (Caenorhabditis elegans, UniProt P34707); assay type: functional
T1 sequence (P34707 whole entry): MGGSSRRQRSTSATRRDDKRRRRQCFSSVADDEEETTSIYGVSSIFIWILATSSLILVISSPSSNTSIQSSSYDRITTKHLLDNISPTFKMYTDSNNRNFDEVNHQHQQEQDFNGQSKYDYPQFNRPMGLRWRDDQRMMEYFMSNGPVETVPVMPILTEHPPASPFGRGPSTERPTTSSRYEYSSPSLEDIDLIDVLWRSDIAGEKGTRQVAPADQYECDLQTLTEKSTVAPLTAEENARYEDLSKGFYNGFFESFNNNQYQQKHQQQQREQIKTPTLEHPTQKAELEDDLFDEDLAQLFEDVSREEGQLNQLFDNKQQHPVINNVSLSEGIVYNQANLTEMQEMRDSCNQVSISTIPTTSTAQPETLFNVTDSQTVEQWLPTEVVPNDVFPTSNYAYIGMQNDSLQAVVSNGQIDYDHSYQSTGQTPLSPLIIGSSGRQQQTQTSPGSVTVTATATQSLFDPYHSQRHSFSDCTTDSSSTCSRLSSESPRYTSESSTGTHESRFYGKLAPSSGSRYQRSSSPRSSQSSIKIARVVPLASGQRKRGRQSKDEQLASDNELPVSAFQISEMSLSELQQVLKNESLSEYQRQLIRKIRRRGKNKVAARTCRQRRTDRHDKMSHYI

[10] = molecular target: T2, Oxysterols receptor LXR-beta (Homo sapiens, UniProt P55055); assay type: functional, cell-based;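 also: Cell-based luminescence dose-response assay of agonist activity at LXR, run as a confirmatory counterscreen to a daf-12 agonist screen; HEK293 cells with Gal4-LXR fusion and GAL4-driven luciferase reporter; agonist potency from rising luciferase signal of a Gal4-LXR reporter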
T2 sequence (P55055 whole entry): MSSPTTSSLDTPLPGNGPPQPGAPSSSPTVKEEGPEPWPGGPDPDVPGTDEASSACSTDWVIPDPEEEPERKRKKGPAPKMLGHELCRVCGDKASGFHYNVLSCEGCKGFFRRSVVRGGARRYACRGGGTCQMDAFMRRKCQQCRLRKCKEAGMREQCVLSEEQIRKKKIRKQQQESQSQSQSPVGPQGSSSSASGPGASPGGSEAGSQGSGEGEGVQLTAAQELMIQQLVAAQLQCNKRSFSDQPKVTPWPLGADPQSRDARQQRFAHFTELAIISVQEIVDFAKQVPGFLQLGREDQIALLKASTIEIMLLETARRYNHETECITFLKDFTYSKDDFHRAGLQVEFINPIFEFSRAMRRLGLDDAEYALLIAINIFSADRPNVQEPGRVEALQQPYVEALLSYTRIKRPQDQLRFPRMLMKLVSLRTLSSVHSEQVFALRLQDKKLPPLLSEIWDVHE

cells [11] = assay: cells; remark: listed apart in the source
[12] = molecular target: Lysosomal acid glucosylceramidase (Homo sapiens, UniProt P04062); assay: Dose response cell-based high throughput screening assay to identify enhancers of beta-glucosidase activity. [Related pubchem assays: 784 ]; assay type: functional
[13] = Luminescence Cell-Based Dose Response to Identify Activators of 5'UTR Stem-Loop Driven Prion Protein mRNA Translation in H4-C Neuroglioblastoma Cells. [Related pubchem assays: 1829 (Project Summary), 1814 (Primary HTS)]; assay type: functional
[14] = Luminescence Cell-Based Dose Response HTS to Identify Activators of Luciferase Translation or Activity in H4 […] Cells. [Related pubchem assays: 1829 (Project Summary), 1814 (Primary HTS)]; assay type: functional
H4 = assay: Luminescence Cell-Based Dose Response HTS to Identify Activators of 5'UTR Stem-Loop Driven Prion Protein mRNA Translation in H4 Neuroglioblastoma Cells. [Related pubchem assays: 1829 (Project Summary), 1814 (Primary HTS)]; assay type: functional; settings: Homo sapiens
[15] = Luminescence Cell-Based Dose Response to Identify Activators of Luciferase Translation or Activity in H4-C Neuroglioblastoma Cells. [Related pubchem assays: 1829 (Project Summary), 1814 (Primary HTS)]; assay type: functional
[16] = HPDE-C7 pancreatic duct cell viability loss – fluorescence, HTS (AID 430); assay type: functional, cell-based; settings: Homo sapiens
[17] = viability loss of HPDE-C7K cells – cell-based, fluorescence, HTS, primary screen (AID 431); assay type: functional; settings: Homo sapiens
[18] = Luminescence Cell-Based Dose Confirmation to Identify Activators of 5'UTR Stem-Loop Driven Alpha-Synuclein mRNA Translation in H4 Neuroglioblastoma Cells. [Related pubchem assays: 1829 (Project Summary), 1814 (Primary HTS)]; assay type: functional
Caspase-3 = molecular target: T3, Caspase-3 (Homo sapiens, UniProt P42574); assay type: functional;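 also: Dose-response selectivity test against caspase-3 for candidate inhibitors of sentrin-specific proteases (SENPs)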
T3 sequence (P42574 whole entry): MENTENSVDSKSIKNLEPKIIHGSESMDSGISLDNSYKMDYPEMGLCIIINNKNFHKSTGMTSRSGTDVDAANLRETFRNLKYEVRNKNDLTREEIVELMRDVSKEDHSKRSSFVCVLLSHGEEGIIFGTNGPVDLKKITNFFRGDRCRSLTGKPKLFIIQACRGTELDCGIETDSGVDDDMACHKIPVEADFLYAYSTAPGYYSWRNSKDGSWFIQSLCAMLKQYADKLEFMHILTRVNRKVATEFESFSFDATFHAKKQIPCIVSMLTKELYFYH

[19] = molecular target: T4, Sentrin-specific protease 7 (Homo sapiens, UniProt Q9BQF6); assay type: functional;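 also: Luminescence-based dose-response confirmation of ultra-high-throughput screening hits, measuring inhibition of SENP7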
T4 sequence (Q9BQF6 whole entry): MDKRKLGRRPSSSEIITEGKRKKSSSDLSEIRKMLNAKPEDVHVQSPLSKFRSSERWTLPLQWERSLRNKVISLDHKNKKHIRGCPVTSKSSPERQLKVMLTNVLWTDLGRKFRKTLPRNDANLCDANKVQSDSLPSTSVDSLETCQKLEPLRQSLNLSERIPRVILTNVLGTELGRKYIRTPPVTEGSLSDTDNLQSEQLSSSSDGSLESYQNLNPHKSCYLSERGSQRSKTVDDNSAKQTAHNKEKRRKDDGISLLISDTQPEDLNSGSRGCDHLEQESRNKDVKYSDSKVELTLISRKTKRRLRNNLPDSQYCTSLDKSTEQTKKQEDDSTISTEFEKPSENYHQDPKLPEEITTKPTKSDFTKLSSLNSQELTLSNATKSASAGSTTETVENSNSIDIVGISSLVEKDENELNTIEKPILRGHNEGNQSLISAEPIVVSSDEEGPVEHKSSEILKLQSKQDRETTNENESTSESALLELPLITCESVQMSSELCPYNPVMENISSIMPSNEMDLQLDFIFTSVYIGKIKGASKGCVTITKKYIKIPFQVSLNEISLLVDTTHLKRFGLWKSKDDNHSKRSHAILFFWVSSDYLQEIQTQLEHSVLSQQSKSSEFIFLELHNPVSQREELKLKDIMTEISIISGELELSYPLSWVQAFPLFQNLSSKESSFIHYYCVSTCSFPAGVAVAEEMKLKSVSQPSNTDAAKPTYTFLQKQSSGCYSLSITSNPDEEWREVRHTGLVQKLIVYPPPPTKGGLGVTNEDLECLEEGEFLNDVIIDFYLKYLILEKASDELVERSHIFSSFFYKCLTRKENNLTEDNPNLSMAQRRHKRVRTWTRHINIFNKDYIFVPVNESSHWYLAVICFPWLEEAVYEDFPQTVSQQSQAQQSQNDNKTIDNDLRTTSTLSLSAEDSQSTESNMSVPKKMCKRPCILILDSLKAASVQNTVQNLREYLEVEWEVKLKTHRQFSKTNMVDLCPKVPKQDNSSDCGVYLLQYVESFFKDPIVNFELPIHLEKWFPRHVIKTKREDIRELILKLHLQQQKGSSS

[20] = molecular target: T5, Sentrin-specific protease 6 (Homo sapiens, UniProt Q9GZR1); assay type: functional;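 also: Luminescence-based dose-response confirmatory assay of SENP6 inhibition, following up an ultra-high-throughput screen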
T5 sequence (Q9GZR1 whole entry): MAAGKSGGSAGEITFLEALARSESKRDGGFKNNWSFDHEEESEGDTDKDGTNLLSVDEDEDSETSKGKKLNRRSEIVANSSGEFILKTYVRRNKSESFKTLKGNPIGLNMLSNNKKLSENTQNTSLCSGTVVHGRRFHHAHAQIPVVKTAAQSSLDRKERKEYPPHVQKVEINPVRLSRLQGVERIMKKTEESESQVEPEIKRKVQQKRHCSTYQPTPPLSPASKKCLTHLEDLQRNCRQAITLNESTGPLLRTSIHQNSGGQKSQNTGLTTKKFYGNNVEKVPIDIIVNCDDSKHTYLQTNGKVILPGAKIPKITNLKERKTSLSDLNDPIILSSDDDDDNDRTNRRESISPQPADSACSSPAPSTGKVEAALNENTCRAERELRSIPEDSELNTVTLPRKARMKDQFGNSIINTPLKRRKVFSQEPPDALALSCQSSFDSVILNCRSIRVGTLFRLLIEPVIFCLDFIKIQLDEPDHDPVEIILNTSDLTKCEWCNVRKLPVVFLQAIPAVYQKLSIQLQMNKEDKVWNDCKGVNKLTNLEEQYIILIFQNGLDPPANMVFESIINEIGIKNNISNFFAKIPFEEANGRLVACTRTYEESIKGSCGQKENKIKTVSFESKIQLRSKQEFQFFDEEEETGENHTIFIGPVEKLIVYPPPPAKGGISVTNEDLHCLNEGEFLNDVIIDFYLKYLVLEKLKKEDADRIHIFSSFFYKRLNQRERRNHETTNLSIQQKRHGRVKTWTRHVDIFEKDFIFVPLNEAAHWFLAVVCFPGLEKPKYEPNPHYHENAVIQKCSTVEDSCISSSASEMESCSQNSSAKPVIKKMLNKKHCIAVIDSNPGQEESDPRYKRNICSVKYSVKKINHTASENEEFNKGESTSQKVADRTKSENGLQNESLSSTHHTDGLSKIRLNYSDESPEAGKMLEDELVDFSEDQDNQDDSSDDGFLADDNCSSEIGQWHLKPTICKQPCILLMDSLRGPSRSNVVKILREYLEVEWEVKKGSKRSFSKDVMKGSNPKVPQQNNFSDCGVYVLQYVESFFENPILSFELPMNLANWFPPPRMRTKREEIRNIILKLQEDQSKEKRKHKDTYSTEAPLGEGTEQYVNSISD

[21] = molecular target: T6, Sentrin-specific protease 8 (Homo sapiens, UniProt Q96LD8); assay type: functional;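 also: luminescence read-out of SENP8 inhibition, dose-response confirmation following an ultra-high-throughput screen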
T6 sequence (Q96LD8 whole entry): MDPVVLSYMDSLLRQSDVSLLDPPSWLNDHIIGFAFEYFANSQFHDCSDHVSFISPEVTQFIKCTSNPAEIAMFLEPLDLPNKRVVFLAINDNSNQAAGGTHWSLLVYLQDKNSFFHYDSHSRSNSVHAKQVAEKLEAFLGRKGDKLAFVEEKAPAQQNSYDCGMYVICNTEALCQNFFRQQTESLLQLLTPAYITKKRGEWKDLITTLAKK

[22] = molecular target: Disintegrin and metalloproteinase domain-containing protein 17 (Homo sapiens, UniProt P78536); assay: exosite inhibitors of ADAM17, dose response, biochemical (AID 743260)
Aminopeptidase N = Aminopeptidase N (Plasmodium falciparum FcB1/Columbia, UniProt O96935); assay: malaria alanyl aminopeptidase activity blockers – biochemical, fluorogenic H-Leu-NHMec substrate, 1536-well (AID 1445); parameters: species or system Plasmodium falciparum 3D7, 3D7
[23] = molecular target: T7, Polyadenylate-binding protein 1 (Homo sapiens, UniProt P11940); assay: MLLE binding blockers, Cy5 peptide tracer – biochemical, fluorescence polarization, Cy5-PAM2 peptide, secondary, miRNA deadenylation inhibitor project, dose response (AID 602260); assay type: functional; settings: read-out: IC50_Mean
[24] = molecular target: T7, Polyadenylate-binding protein 1; assay: MLLE domain peptide-binding blockers, IC50 – biochemical, fluorescence polarization, FITC-PAM2 peptide, dose response (AID 602259); assay type: functional; settings: read-out: IC50_Mean
[25] = Trypanosoma cruzi growth suppression in host cells – NIH3T3 host cells, beta-gal luminescence, confirmation (AID 2044); assay type: functional, cell-based;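 also: intracellular parasites grown in NIH/3T3 mouse fibroblasts as host cells; luminescent beta-galactosidase reporter signal from transgenic T. cruzi replicating inside host cells; inhibitors lower the luminescence signal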
[26] = NIH3T3 cell viability loss – ATP luminescence, mouse fibroblasts, counter-screen, dose response (AID 2010); assay type: functional, cell-based;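 also: cells exposed to compound for about 90 hours before reading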

Sequence of Lysosomal acid glucosylceramidase (P04062 whole entry): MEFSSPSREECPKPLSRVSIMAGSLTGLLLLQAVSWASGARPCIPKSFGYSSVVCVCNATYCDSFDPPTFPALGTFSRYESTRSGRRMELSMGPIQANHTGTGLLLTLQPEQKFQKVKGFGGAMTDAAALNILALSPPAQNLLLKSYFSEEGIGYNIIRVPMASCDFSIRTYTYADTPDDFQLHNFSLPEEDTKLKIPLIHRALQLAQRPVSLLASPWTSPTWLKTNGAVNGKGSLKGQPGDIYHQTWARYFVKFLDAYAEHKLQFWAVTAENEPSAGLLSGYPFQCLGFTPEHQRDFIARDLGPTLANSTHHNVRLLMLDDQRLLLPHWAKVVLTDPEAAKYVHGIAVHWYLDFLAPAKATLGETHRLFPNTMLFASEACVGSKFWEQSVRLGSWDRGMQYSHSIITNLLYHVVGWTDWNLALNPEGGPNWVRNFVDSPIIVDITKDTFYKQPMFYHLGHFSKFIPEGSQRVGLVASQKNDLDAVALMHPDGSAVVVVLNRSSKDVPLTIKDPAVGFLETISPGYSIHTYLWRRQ
T7 sequence (P11940 whole entry, the tested form may be a part): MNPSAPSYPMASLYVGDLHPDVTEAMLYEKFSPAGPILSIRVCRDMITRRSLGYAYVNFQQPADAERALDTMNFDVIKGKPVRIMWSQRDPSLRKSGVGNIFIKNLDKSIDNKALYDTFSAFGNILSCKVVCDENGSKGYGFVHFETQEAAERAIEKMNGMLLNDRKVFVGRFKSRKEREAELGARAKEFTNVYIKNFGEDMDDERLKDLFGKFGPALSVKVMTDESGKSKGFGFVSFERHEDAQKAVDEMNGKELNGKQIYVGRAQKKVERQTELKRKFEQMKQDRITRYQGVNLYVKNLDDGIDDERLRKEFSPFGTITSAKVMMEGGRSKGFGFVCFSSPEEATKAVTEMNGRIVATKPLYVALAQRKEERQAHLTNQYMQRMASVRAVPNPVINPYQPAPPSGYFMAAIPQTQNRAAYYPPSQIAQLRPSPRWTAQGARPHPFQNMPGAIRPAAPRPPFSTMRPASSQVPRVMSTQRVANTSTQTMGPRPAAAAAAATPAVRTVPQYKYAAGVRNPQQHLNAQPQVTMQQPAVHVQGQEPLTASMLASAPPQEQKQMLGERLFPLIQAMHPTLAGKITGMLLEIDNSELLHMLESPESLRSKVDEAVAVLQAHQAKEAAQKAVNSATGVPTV
Sequence of Aminopeptidase N (O96935 whole entry): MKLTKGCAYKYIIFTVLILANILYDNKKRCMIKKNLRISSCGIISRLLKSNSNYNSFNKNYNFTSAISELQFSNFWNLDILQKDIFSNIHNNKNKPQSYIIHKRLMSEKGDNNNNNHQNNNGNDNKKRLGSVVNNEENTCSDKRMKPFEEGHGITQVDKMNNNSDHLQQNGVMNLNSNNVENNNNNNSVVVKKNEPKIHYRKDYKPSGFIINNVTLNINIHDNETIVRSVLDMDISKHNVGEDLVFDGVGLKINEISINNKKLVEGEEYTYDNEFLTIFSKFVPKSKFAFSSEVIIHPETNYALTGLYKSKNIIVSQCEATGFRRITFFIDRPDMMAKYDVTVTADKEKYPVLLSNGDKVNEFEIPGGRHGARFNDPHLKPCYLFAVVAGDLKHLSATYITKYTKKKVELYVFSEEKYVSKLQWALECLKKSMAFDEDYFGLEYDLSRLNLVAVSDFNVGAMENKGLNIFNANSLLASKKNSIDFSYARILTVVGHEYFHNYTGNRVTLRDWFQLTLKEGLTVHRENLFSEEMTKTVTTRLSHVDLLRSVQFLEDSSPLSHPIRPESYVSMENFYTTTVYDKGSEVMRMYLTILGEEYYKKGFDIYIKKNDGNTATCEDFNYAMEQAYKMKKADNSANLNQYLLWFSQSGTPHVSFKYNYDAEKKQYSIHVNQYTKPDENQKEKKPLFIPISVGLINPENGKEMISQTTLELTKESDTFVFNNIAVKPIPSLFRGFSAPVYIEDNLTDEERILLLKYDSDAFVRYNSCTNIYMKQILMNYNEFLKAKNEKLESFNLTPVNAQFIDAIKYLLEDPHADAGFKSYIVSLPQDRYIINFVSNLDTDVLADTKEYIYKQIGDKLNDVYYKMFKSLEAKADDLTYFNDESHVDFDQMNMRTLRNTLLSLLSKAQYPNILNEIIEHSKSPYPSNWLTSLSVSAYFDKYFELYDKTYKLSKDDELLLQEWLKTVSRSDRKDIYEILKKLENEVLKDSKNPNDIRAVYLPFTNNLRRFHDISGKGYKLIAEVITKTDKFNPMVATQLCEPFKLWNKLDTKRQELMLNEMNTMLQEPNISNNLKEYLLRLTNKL
Sequence of Disintegrin and metalloproteinase domain-containing protein 17 (P78536 whole entry, the tested form may be a part): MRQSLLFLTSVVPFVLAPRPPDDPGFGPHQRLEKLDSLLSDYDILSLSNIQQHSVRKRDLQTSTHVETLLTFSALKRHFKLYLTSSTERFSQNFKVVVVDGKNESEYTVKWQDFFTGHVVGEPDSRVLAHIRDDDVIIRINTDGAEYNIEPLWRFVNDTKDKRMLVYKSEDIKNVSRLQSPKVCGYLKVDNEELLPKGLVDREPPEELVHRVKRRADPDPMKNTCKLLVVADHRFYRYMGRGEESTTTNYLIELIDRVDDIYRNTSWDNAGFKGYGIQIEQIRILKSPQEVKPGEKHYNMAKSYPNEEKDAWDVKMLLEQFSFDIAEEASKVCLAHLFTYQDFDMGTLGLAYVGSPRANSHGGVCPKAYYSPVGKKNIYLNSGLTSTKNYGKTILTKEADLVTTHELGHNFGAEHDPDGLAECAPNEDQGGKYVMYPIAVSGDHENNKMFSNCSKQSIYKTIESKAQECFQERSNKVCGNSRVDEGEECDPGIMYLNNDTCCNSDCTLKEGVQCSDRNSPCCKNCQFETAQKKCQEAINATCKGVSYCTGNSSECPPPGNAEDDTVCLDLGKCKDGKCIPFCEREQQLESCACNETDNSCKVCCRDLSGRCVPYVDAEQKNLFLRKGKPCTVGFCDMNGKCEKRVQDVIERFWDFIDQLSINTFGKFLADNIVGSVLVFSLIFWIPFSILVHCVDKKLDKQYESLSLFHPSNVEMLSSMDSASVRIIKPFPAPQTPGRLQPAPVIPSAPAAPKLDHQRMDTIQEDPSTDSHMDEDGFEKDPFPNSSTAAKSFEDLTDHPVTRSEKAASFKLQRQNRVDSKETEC

COc1cc(NC(=S)NC(=O)c2ccc(C(C)(C)C)cc2)ccc1NC(=O)c1cccs1
CC50 [1]: 18.9 µM (active)
EC50 (BJ [2]): 60.4 µM (active)
EC50 (BJ [3]): 32.9 µM (inconclusive)
EC50 (BJ [4]): > 150 µM (inconclusive)
EC50 [5]: 72.6 µM (active)
IC50 (Vero [6]): 2.5 µM (active)
CC50 (Vero [7]): > 25 µM (active)
IC50 (cells [8]): 8.44 µM (active)

Cc1ccc(N/C=C(/C(=O)c2ccco2)C(=O)C(F)(F)F)cc1Cl
IC50 [9]: > 100 µM (active)
IC50 (Protein skinhead-1): 27.2 µM (active)
EC50 [10]: > 67.5 µM (inactive)
EC50 (cells [11]): > 67.5 µM (inactive)

O=C(CCS(=O)(=O)c1cccc2nonc12)N1CCCc2ccccc21
EC50 [12]: > 50 µM (not active)

CC(C)(C)c1ccc(OCc2nc(-c3ccccn3)no2)c(Br)c1
EC50 [13]: 0.683 µM (active)
EC50 [14]: < 0.1 µM (active)
EC50 (H4): < 0.1 µM (active)
EC50 [15]: 0.91 µM (active)
EC50 [16]: 11.5 µM (active)
EC50 [17]: 11.9 µM (active)
EC50 [18]: 0.114 µM (active)
IC50 (Caspase-3): 33.8 µM (active)
IC50 [19]: 5.88 µM (active)
IC50 [20]: 17.6 µM (active)
IC50 [21]: 13.5 µM (active)
IC50 [22]: > 69.5 µM (inactive)

Sc1nnc(Cc2ccccc2)n1Cc1ccco1
EC50 [12]: > 50 µM (not active)

CCNc1cc2oc(=O)c(CN3CCOCC3)c(C)c2cc1C
IC50 (Aminopeptidase N): 32.2 µM (active)
IC50 [23]: > 66 µM (inactive)
IC50 [24]: > 66 µM (inactive)

CCOc1ccc2nc(NC(=O)CSC3=NCCS3)sc2c1
IC50 [9]: > 100 µM (active)

COC(=O)c1cc(NC(=O)CC2S/C(=N/c3ccccc3)N(CCc3c[nH]c4ccccc34)C2=O)cc(C(=O)OC)c1 (centres undefined)
CC50 [1]: > 50 µM (active)
EC50 [25]: 1.11 µM (active)
EC50 [26]: > 60 µM (inconclusive)
IC50 (cells [8]): 41.7 µM (active)
